According to US20240252508A1, “Novel glucose uptake inhibitors for use in the treatment of cancer” (NOVELYEAST BV, priority 2021, published 2024):

How the values were obtained:
[1] = test system: tps1Δ cells; assay: Growth rescue of tps1Δ strain on glucose (growth curves, 2% galactose medium); assay type: cell-based, S. cerevisiae; settings: 100 μM compound, 2.5 mM glucose
Outline: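 tps1Δ yeast pregrown in Complete Synthetic medium with 2% galactose, washed, resuspended to OD 0.1; compounds added 10 min before glucose. Growth followed as OD595 every 30 min at 30 °C in at least three technical replicates.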

[2] = test system: A549 lung adenocarcinoma cells; assay: A549 cell proliferation / growth inhibition; assay type: cell-based, human; settings: for Selected from primary screen for growth inhibition of A549 cells at 50 μM: 50 μM compound, 1 mM glucose; for Selected for having an IC50 ratio (10 mM glucose: 1 mM glucose) of A549 growth higher than WBC-A: IC50 on 10 mM vs 1 mM glucose, compared with WBC-A
Outline: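 A549 growth screened in RPMI with 1 mM glucose, compounds at 50 μM; cell number from counts of Hoechst-stained nuclei after 3 days. Growth curves also followed by IncuCyte phase-contrast confluency over 3–5 days (1000–1500 cells/well), DMSO ≤0.1%, ≥4 technical repeats.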

| SMILES | Rescue of the tps1Δ strain on 2.5 mM glucose at 100 μM [1] | Selected from primary screen for growth inhibition of A549 cells at 50 μM [2] | Selected for having an IC50 ratio (10 mM glucose: 1 mM glucose) of A549 growth higher than WBC-A [2] |
| --- | --- | --- | --- |
| Cc1nc(SCC(=O)N2CCC(C)Sc3ccccc32)c2c(-c3cccs3)csc2n1 (centres unmarked) [43B] | No | No | – |
| Cc1nc(Sc2nnc(-c3ccoc3C)n2C)c2c(-c3cccs3)csc2n1 [63C] | No | No | – |
| CCOC(=O)CNC(=O)CSc1nnc(C)c2cnn(-c3ccccc3)c12 [73C] | No | No | – |
| CC1CCc2c(sc3ncnc(Sc4nnc5n4CCCCC5)c23)C1 (centres unmarked) [31A] | No | No | – |
| Cc1nc(N2CCNC(=O)C2)c2c(-c3cccs3)csc2n1 [3B] | No | No | – |
| Cc1ccc(-c2csc3ncnc(SCCN4CCOCC4)c23)cc1 [9C] | No | Yes | Lower IC50 ratio |
| Cc1nc(NCCCN2CCC(O)CC2)c2c(-c3cccs3)csc2n1 [16B] | No | No | – |
| Cc1nc(SCCN2CCOC2=O)c2c(-c3cccs3)csc2n1 [26C] | Yes | No | – |
| CCn1nnnc1Sc1nc(CN2CCOCC2)nc2scc(-c3cccs3)c12 [8C] | No | Yes | Lower IC50 ratio |
| Cc1nc(Sc2cccc(C(F)(F)F)c2)c2c(-c3cccs3)csc2n1 [25C] | No | Yes | Lower IC50 ratio |
| Cc1nc(SCC(=O)NC(C)(C)C)c2c(-c3cccs3)csc2n1 [32B] | Yes | Yes | Lower IC50 ratio |
| Cc1nc(Sc2nnnn2Cc2ccco2)c2c(-c3cccs3)csc2n1 [35C] | No | Yes | Lower IC50 ratio |
| c1csc(-c2csc3nc(CN4CCOCC4)nc(Sc4ccncc4)c23)c1 [40C] | No | Yes | Lower IC50 ratio |
| CCCN(CC1CC1)C(=O)CSc1nc(C)nc2scc(-c3cccs3)c12 [9B] | No | No | – |
| Cc1nc(Sc2nnc3ccccn23)c2c(-c3cccs3)csc2n1 [30A] | No | No | – |
| CCOC(=O)CSc1nc(CN2CCOCC2)nc2scc(-c3cccs3)c12 [35B] | No | No | – |
| Cc1nc(Sc2nnc(NC3CC3)s2)c2c(-c3cccs3)csc2n1 [66C] | No | No | – |
| CC1CN(C(=O)CSc2ncnc3scc(-c4ccc(F)cc4)c23)CCO1 (centres unmarked) [37C] | No | No | – |
| Cc1nc(SCC(C#N)CCC#N)c2c(-c3cccs3)csc2n1 (centres unmarked) [21C] | No | No | – |
| COc1ccc(OC)c(NC(=O)CSc2nc(C)nc3scc(-c4cccs4)c23)c1 [21B] | No | No | – |
| Cc1nc(SCC(=O)c2ccc3c(c2)NC(=O)CO3)c2c(-c3cccs3)csc2n1 [11C] | Yes | Yes | Higher IC50 ratio and confirmed |

| SMILES | Rescue of the tps1Δ strain on 2.5 mM glucose at 100 μM [1] | Selected from primary screen for growth inhibition of A549 cells at 50 μM [2] | Selected for having an IC50 ratio (10 mM glucose: 1 mM glucose) of A549 growth higher than WBC-A [2] |
| --- | --- | --- | --- |
| Cc1nc(SCC(=O)N(CC(C)C)CC(C)C)c2c(-c3cccs3)csc2n1 [44B] | No | Yes | Lower IC50 ratio |
| Cc1nc(N(C)CC(N)=O)c2c(-c3cccs3)csc2n1 [39B] | No | No | – |
| CCn1c(CCC(N)=O)nnc1Sc1nc(C)nc2scc(-c3cccs3)c12 [16C] | Yes | Yes | Lower IC50 ratio |
| COC(=O)CSc1nc(C)nc2sc3c(c12)CCC3 [14C] | No | No | – |
| CCc1nc(SCC(=O)OC)c2c3c(sc2n1)COC(C)(C)C3 [79C] | No | No | – |
| COCCSc1nnc(C)c2cnn(-c3ccccc3)c12 [69C] | No | No | – |
| Cc1nc(SCC(=O)N2CCOCC2)c2c3c(sc2n1)CCCC3 [52C] | No | No | – |
| Cc1nc(Sc2nnc3n2CCC(CN=[N+]=[N-])CC3)c2c(-c3cccs3)csc2n1 (centres unmarked) [87C] | Yes | Yes | Lower IC50 ratio |
| Cc1nnc(Sc2nc(CN3CCOCC3)nc3scc(-c4cccs4)c23)n1C [6C] | No | Yes | Lower IC50 ratio |
| Cn1nnnc1Sc1nc(CN2CCOCC2)nc2scc(-c3cccs3)c12 [54A] | No | Yes | Lower IC50 ratio |
| COC(=O)CSc1ncnc2scc(-c3ccccc3)c12 [86C] | No | No | – |
| Cc1nc(SCC(N)=O)c2c3c(sc2n1)CCC3 [49C] | No | No | – |
| Cc1nc(SCC(=O)NC(=O)NCc2ccco2)c2cc(-c3ccccc3)sc2n1 [40B] | No | Yes | Lower IC50 ratio |
| COC(=O)C(C)Sc1nc(C)nc2scc(-c3cccs3)c12 (centres unmarked) [36B] | No | No | – |
| CCN(CC)Cc1nc(Sc2nnc(C3CC3)n2CCC(N)=O)c2c(C)c(C)sc2n1 [66A] | No | No | – |
| Cc1nc(SCC(=O)Nc2ccc(OC(F)(F)F)cc2)c2c(-c3cccs3)csc2n1 [5C] | No | Yes | Lower IC50 ratio |
| Cc1nc(N(C)Cc2nnc3n2CCCCC3)c2c(-c3ccccc3)csc2n1 [33A] | No | No | – |
| COc1ccc(-c2csc3ncnc(Sc4nnc(-c5cccc(C)c5)n4CC(N)=O)c23)cc1 [21A] | No | Yes | Lower IC50 ratio |
| COc1ccccc1-n1ncc2c(C)nnc(SCC(N)=O)c21 [68C] | No | No | – |
| CCN(C(=O)CSc1nc(C)nc2scc(-c3cccs3)c12)C1CCS(=O)(=O)C1 (centres unmarked) [2C] | Yes | Yes | Lower IC50 ratio |
